ChEMBL document CHEMBL1147260, “Heliotropamide, a novel oxopyrrolidine-3-carboxamide from Heliotropium ovalifolium” (J Nat Prod, 2003)
Calls of active or inactive are those of the source.

What was measured:
Cladosporium cucumerinum = assay: Antifungal activity against Cladosporium cucumerinum; format: functional, organism-based
Candida albicans = assay: Antifungal activity against Candida albicans; format: functional, organism-based
Bacillus subtilis = assay: Antibacterial activity against Bacillus subtilis; format: functional, organism-based
[1] = Antioxidant activity assessed as DPPH scavenging activity; format: functional
[2] = molecular target: Acetylcholinesterase (Homo sapiens) (UniProt P22303); assay: Inhibition of acetylcholinesterase

Measured: Activity

Chain of Acetylcholinesterase (Homo sapiens) (P22303 whole entry): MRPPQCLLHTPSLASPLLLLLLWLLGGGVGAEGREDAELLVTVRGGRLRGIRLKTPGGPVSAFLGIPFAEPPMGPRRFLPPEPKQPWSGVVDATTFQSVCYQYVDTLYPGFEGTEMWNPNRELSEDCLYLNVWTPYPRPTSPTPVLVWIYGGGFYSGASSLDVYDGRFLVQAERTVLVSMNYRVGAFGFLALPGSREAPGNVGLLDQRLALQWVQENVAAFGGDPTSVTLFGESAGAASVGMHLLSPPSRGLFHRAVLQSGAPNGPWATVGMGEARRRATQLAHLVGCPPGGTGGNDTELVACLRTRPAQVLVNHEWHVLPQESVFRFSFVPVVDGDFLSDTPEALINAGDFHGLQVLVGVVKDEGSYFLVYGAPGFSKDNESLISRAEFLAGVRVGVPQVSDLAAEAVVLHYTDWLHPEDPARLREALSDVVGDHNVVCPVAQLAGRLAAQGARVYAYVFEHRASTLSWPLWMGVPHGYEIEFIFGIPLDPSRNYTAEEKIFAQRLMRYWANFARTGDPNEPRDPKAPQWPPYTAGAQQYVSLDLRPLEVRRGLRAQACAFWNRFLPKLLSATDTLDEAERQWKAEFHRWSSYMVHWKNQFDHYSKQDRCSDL

COc1cc(/C=C2\C(=O)N(CCc3ccc(OC(C)=O)cc3)[C@H](c3ccc(OC(C)=O)c(OC)c3)[C@H]2C(=O)NCCc2ccc(OC(C)=O)cc2)ccc1OC(C)=O
inactive: all assays above

COc1cc(/C=C2\C(=O)N(CCc3ccc(O)cc3)[C@H](c3ccc(O)c(OC)c3)[C@H]2C(=O)NCCc2ccc(O)cc2)ccc1O
inactive: all assays above
